Source: patent publication US7531545B2, “2-amino-3,4-dihydro-pyrido[3,4-d]pyrimidine derivatives useful as inhibitors of β-secretase (BACE)” (Janssen Pharmaceutica, N.V., priority 2005, dated 2009)
Several values for one entry are separate records, joined by “and”; a condition that tells them apart may be missing. Equal entries are not always repeated. Structures can show the parent of a compound that is named as a salt.

Target: human BACE-1 (Homo sapiens, UniProt P56817)
Assay: CEREP BACE Inhibition Assay
Type: biochemical
Conditions: recombinant enzyme; for inhibition at 1 µM / % Inhibition @ 1.0 μM / inhibition at 0.3 µM: percent inhibition of the control activity; for inhibition at 1 µM: read-out: % Inhibition @ 1.0 μM; for IC50: read-out: IC50
Procedure: More specifically the assay, run at 50 μL in a 96 well plate, evaluated the effect of test compound on the activity of the human BACE-1 quantified by measuring the formation of Mca-S-E-V-N-L-NH2 from […], using a recombinant enzyme. The test compound, reference compound or water (control) were added to a buffer containing 0.09 M sodium acetate (pH 4.5) and 0.25 μg BACE-1. Compound interference with the fluorimetric detection method due to autofluorescence was then checked by measurements at the wavelengths defined to evaluate the enzyme activity. […] For control basal measurement, the substrate was omitted from the reaction mixture. […] The standard inhibitory reference compound was OM99-2, which was tested in each experiment at several concentrations to obtain an inhibition curve from which its IC50 value was calculated.

Chain of human BACE-1 (P56817 46-501): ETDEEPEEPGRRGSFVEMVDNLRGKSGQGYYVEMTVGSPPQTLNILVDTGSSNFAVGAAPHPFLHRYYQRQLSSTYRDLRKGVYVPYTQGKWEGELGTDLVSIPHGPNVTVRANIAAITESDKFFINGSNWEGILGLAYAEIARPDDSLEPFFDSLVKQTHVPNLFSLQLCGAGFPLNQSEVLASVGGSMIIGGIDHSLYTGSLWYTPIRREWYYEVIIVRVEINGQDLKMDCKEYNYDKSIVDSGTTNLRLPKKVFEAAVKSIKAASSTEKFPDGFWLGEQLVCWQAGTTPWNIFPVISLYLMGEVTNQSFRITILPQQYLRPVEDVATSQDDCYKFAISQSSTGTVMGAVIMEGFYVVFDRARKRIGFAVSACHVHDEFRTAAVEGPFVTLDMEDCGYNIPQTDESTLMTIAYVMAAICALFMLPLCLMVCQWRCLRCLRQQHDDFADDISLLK

| SMILES | inhibition at 1 µM | IC50 | % Inhibition @ 1.0 μM | inhibition at 0.3 µM |
| --- | --- | --- | --- | --- |
| CC(C)[C@H](COCC1CC(C(C)(C)C)=NO1)N1Cc2cc(Oc3ccccc3)ncc2N=C1N (stereo partly shown) [Compound 236, 3-[1-(3-tert-Butyl-4,5-dihydro-isoxazol-5-ylmethoxymethyl)-2-methyl-propyl]-6-phenoxy-3,4-dihydro-pyrido[3,4-d]pyrimidin-2-ylamine] | 92% | 180 nM |  |  |
| Cc1nc([C@H](COC(C)(C)C)NC(=O)CC[C@@H](C2CCCCC2)N2Cc3cc(Oc4ccccc4)ncc3N=C2N)no1 [Compound 110] | 90% | 62 nM |  |  |
| C[C@@H](CO)N(CCC(C)(C)C)C(=O)CC[C@@H](C1CCCCC1)N1Cc2cc(Oc3ccccc3)ncc2N=C1N [Compound 139] | 94% | 200 nM |  |  |
| CC(C)(C)CNCC[C@@H](C1CCCCC1)N1Cc2cc(Oc3ccccc3)ncc2N=C1N [Compound 214] | 57% | 930 nM and 1000 nM | 53% |  |
| COC(=O)[C@H](COC(C)(C)C)NC(=O)CC[C@@H](C(C)C)N1Cc2cc(Oc3ccccc3)ncc2N=C1N [Compound 69] |  | 340 nM |  | 57% |
| CC(C)(C)OC[C@@H](NC(=O)CC[C@@H](C1CCCCC1)N1Cc2cc(Oc3ccccc3)ncc2N=C1N)C(=O)N[C@@H](CCC(=O)O)C(=O)O [Compound 225] |  | 110 nM | 96% |  |
| CC(C)(C)OC[C@@H](NC(=O)CC[C@@H](C1CCCCC1)N1Cc2cc(Oc3ccccc3)ncc2N=C1N)C(N)=O [Compound 111] | 100% | 110 nM |  |  |
| CN(CCc1ccccc1)C(=O)CC[C@@H](C1CCCCC1)N1Cc2cc(Oc3ccccc3)ncc2N=C1N [Compound 122, 4-(2-Amino-6-phenoxy-4H-pyrido[3,4-d]pyrimidin-3-yl)-4-(S)-cyclohexyl-N-methyl-N-phenethyl-butyramide] | 97% |  |  |  |
| COC(=O)[C@H](COC(C)(C)C)NC(=O)CC[C@@H](C1CCCCC1)N1Cc2cc(Oc3ccccc3)ncc2N=C1N [Compound 61] |  | 240 nM |  | 81% |
| CC(C)[C@H](C(=O)N(C)CCc1ccccc1)N1Cc2cc(Oc3ccccc3)ncc2N=C1N [Compound 221, 2-(2-Amino-6-phenoxy-4H-pyrido[3,4-d]pyrimidin-3-yl)-3,N-dimethyl-N-phenethyl-butyramide hydrochloride salt (R enantiomer)] | 52% | 980 nM |  |  |
| NC1=Nc2cnc(Oc3ccccc3)cc2CN1[C@@H](CCCNC[C@H]1CCCO1)C1CCCCC1 [Compound 211] | 88% | 160 nM |  |  |
| CC(C)(C)OC[C@@H](NC(=O)CC[C@@H](C1CCCCC1)N1Cc2cc(Oc3ccccc3)ncc2N=C1N)C(=O)N1CCCCC1 [Compound 100] |  | 110 nM |  | 93% |
| NC1=Nc2cnc(Oc3ccccc3)cc2CN1[C@@H](CCC(=O)N1CCCC[C@H]1CC(=O)O)C1CCCCC1 [Compound 93] |  | 110 nM |  | 94% |
| CN(CC[C@@H](C1CCCCC1)N1Cc2cc(Oc3ccccc3)ncc2N=C1N)C1CCCCC1 [Compound 206] | 91% | 180 nM and 120 nM | 90% |  |
| NC1=Nc2cnc(Oc3ccccc3)cc2CN1[C@@H](CCC(=O)N1CCC[C@@H]1CO)C1CCCCC1 [Compound 144] | 81% | 820 nM |  |  |
| CN(C(=O)C[C@@H](C1CCCCC1)N1Cc2cc(Oc3ccccc3)ncc2N=C1N)C1CCCCC1 [Compound 205] | 81% | 290 nM |  |  |
| CC(C)(C)CCN(CCN1CCOCC1)C(=O)CC[C@@H](C1CCCCC1)N1Cc2cc(Oc3ccccc3)ncc2N=C1N [Compound 174] | 100% | 86 nM |  |  |
| NC1=Nc2cnc(Oc3ccccc3)cc2CN1[C@@H](CCC(=O)NCCN1CCOCC1)C1CCCCC1 [Compound 116] | 54% | 630 nM |  |  |
| CC(C)(C)OCCN(Cc1ccsc1)C(=O)CC[C@@H](C1CCCCC1)N1Cc2cc(Oc3ccccc3)ncc2N=C1N [Compound 156] | 102% | 100 nM |  |  |
| CC(C)[C@H](CCC(=O)N[C@H](COC(C)(C)C)C(=O)O)N1Cc2cc(Oc3ccccc3)ncc2N=C1N [Compound 88] |  | 100 nM |  | 98% |
| CC(C)[C@H](COCC1CCCCC1)N1Cc2cc(Oc3ccccc3)ncc2N=C1N [Compound 234] | 94% | 180 nM |  |  |
| CC(C)C(COCC1CC(CC(C)(C)C)=NO1)N1Cc2cc(Oc3ccccc3)ncc2N=C1N (stereo not shown) [Compound 238] | 72% | 540 nM |  |  |

| SMILES | inhibition at 1 µM | IC50 | % Inhibition @ 1.0 μM | inhibition at 0.3 µM |
| --- | --- | --- | --- | --- |
| CCOCCCNC(=O)CC[C@@H](C1CCCCC1)N1Cc2cc(Oc3ccccc3)ncc2N=C1N [Compound 173] | 92% | 130 nM |  |  |
| COCCN(CCOC)C(=O)CC[C@@H](C1CCCCC1)N1Cc2cc(Oc3ccccc3)ncc2N=C1N [Compound 142] | 90% | 200 nM |  |  |
| NC1=Nc2cnc(Oc3ccccc3)cc2CN1[C@@H](CCC(=O)N(CC(=O)O)C1CCCCC1)C1CCCCC1 [Compound 84, {[4-(2-Amino-6-phenoxy-4H-pyrido[3,4-d]pyrimidin-3-yl)-4-(S)-cyclohexyl-butyryl]cyclohexyl-amino}-acetic acid] |  | 100 nM |  | 100% |
| CC(C)(C)OC[C@H](CN)NCCC[C@@H](C1CCCCC1)N1Cc2cc(Oc3ccccc3)ncc2N=C1N [Compound 167, N^2-[4-(2-Amino-6-phenoxy-4H-pyrido[3,4-d]pyrimidin-3-yl)-4-cyclohexyl-butyl]-3-tert-butoxy-propane-1,2-diamine] | 82% | 520 nM |  |  |
| COC(=O)[C@H](COCc1ccccc1)N(C)C(=O)CC[C@@H](C1CCOCC1)N1Cc2cc(Oc3ccccc3)ncc2N=C1N [Compound 56] |  | 75 nM |  | 93% |
| CC(C)OC(=O)[C@H](COC(C)(C)C)NC(=O)CC[C@@H](C1CCCCC1)N1Cc2cc(Oc3ccccc3)ncc2N=C1N [Compound 136] | 98% | 190 nM |  |  |
| CC(C)OC(=O)[C@@H](COC(C)(C)C)NC(=O)CC[C@@H](C1CCCCC1)N1Cc2cc(Oc3ccccc3)ncc2N=C1N [Compound 140, 2-[4-(2-Amino-6-phenoxy-4H-pyrido[3,4-d]pyrimidin-3-yl)-4-cyclohexyl-butyrylamino]-3-tert-butoxy-propionic acid isopropyl ester] | 98% | 150 nM |  |  |
| NC1=Nc2cnc(Oc3ccccc3)cc2CN1[C@@H](CN1CC2(CCCCC2)NC1=O)C1CCCCC1 [Compound 135, 3-[2-(2-Amino-6-phenoxy-4H-pyrido[3,4-d]pyrimidin-3-yl)-2-(R)-cyclohexyl-ethyl]-1,3-diaza-spiro[4.5]decan-2-one] | 52% | 200 nM |  |  |
| CC(C)(C)OC(=O)N1CCC(NC(=O)CC[C@@H](C2CCCCC2)N2Cc3cc(Oc4ccccc4)ncc3N=C2N)CC1 [Compound 150] | 95% | 170 nM |  |  |
| CC(C)[C@H](CCC(=O)N[C@H](COCc1ccccc1)C(=O)O)N1Cc2cc(Oc3ccccc3)ncc2N=C1N [Compound 54] |  | 170 nM |  | 97% |
| CC(C)[C@H](CCC(=O)N[C@@H](COC(C)(C)C)c1nnn[nH]1)N1Cc2cc(Oc3ccccc3)ncc2N=C1N [Compound 97, 4-(2-Amino-6-phenoxy-4H-pyrido[3,4-d]pyrimidin-3-yl)-5-methyl-(S)-hexanoic acid [2-(R)-tert-butoxy-1-(1H-tetrazol-5-yl)-ethyl]-amide] |  | 110 nM |  | 96% |
| CC(C)(C)OC[C@@H](NC(=O)CC[C@@H](C1CCCCC1)N1Cc2cc(Oc3ccccc3)ncc2N=C1N)C(=O)N[C@@H](CCC(=O)O)C(=O)O [Compound 224] | 100% | 82 nM |  |  |
| COC(=O)[C@@H](COC(C)(C)C)NC(=O)CC[C@@H](C(C)C)N1Cc2cc(Oc3ccccc3)ncc2N=C1N [Compound 87] |  | 96 nM |  | 84% |
| NC1=Nc2cnc(Oc3ccccc3)cc2CN1[C@@H](CCC(=O)N(Cc1nnc[nH]1)C1CCCCC1)C1CCCCC1 [Compound 80, 4-(2-Amino-6-phenoxy-4H-pyrido[3,4-d]pyrimidin-3-yl)-4-(S),N-dicyclohexyl-N-(4H-[1,2,4]triazol-3-ylmethyl)-butyramide] |  | 170 nM |  | 97% |
| CC(C)(C)CCN(CCC[C@@H](C1CCCCC1)N1Cc2cc(Oc3ccccc3)ncc2N=C1N)CCN1CCOCC1 [Compound 182] | 100% | 89 nM |  |  |
| CC(C)(C)CCN(CCN)C(=O)CC[C@@H](C1CCCCC1)N1Cc2cc(Oc3ccccc3)ncc2N=C1N [Compound 146] | 100% | 72 nM |  |  |
| C[C@H](CO)N(CCC(C)(C)C)C(=O)CC[C@@H](C1CCCCC1)N1Cc2cc(Oc3ccccc3)ncc2N=C1N [Compound 138] | 8% | 310 nM |  |  |
| CC(C)(C)OCCN(Cc1cccs1)C(=O)CC[C@@H](C1CCCCC1)N1Cc2cc(Oc3ccccc3)ncc2N=C1N [Compound 154] | 102% | 110 nM |  |  |
| CC(C)(C)CNC(=O)C[C@@H](C1CCCCC1)N1Cc2cc(Oc3ccccc3)ncc2N=C1N [Compound 200] | 50% | 780 nM and 760 nM | 53% |  |
| CN(C(=O)CC[C@@H](C1CCCCC1)N1Cc2cc(Oc3ccccc3)ncc2N=C1N)[C@@H](COC(C)(C)C)C(=O)O [Compound 66] |  | 260 nM |  | 96% |
| CC(C)(C)OCCN(Cc1ccccn1)C(=O)CC[C@@H](C1CCCCC1)N1Cc2cc(Oc3ccccc3)ncc2N=C1N [Compound 155] | 100% | 84 nM |  |  |
